Source: patent US7547686B2, “Combretastatin A-3 prodrug” (Arizona Board of Regents, a body corporate of the State of …, priority 2001, dated 2009)

How the values were obtained:
[1] = tested on: Stenotrophomonas maltophilia, Micrococcus luteus, Staphylococcus aureus, Escherichia coli, Enterobacter cloacae, Enterococcus faecalis, Streptococcus …; details: Pettit et al., 2000; cited from earlier work
[2] = tested on: Cryptococcus neoformans; assay: Disk diffusion assay, Cryptococcus neoformans; format: cell-based
From the text: (§1) Antimicrobial susceptibility testing. Compounds were screened against the bacteria Stenotrophomonas maltophilia, Micrococcus luteus, Staphylococcus aureus, Escherichia coli, Enterobacter cloacae, Enterococcus faecalis, Streptococcus pneumoniae, Neisseria gonorrhoeae, and the fungi Candida albicans and Cryptococcus neoformans, according to established disk susceptibility testing protocols (National Committee for Clinical Laboratory Standards 1997. Performance standards for antimicrobial disk susceptibility tests-sixth edition: Approved Standard M2-A6, NCCLS, Wayne, Pa.)

[3] = tested on: human cancer cell lines and murine P388 lymphocytic leukemia cell line; assay: Cancer cell line inhibitory activity, panel as a whole (Table II); format: cell-based
[4] = tested on: Stenotrophomonas maltophilia, Micrococcus luteus, Staphylococcus aureus, Escherichia coli, Enterobacter cloacae, Enterococcus faecalis, Streptococcus …; assay: Antimicrobial disk susceptibility testing, bacteria and fungi panel; format: cell-based
From the text: as §1

[5] = format: physicochemical; details: at 25° C.

| SMILES | Solubility [5] | further results |
| --- | --- | --- |
| COc1ccc(/C=C/c2cc(OC)c(OC)c(OC)c2)c(O)c1O [(E)-combretastatin A-1] |  | antibacterial and antifungal activities (literature) [1]: antibacterial and antifungal activities |
| COc1ccc(/C=C\c2cc(O)c(OC)c(OC)c2)cc1O [Compound 2a, Combretastatin A-3] |  | MIC [2]: 50-100 μg/disk |
| COc1ccc(/C=C\c2cc(OC)c(OC)c(OP(=O)([O-])O)c2)cc1OP(=O)([O-])O.[Na+].[Na+] [Compound 10a, Sodium combretastatin A-3 3,3′-O-phosphate] | >218 mg/mL | cancer cell line inhibitory activity (in words) [3]: good cancer cell line inhibitory activity; activity in disk diffusion assays [4]: not active |
| COc1ccc(/C=C\c2cc(OC)c(OC)c(OP(=O)([O-])O)c2)cc1OP(=O)([O-])O.[Li+].[Li+] [Compound 10b] | >100 mg/mL |  |
| COc1ccc(/C=C\c2cc(OC)c(OC)c(OP(=O)([O-])O)c2)cc1OP(=O)([O-])O.[K+].[K+] [Compound 10c] | >228 mg/mL | cancer cell line inhibitory activity (in words) [3]: good cancer cell line inhibitory activity |
| COc1ccc(/C=C\c2cc(OC)c(OC)c(OP(=O)([O-])O)c2)cc1OP(=O)([O-])O.[Rb+].[Rb+] [Compound 10d] | >60 mg/mL |  |
| COc1ccc(/C=C\c2cc(OC)c(OC)c(OP(=O)([O-])[O-])c2)cc1OP(=O)([O-])[O-].[Mg+2].[Mg+2] [Compound 10h] | 10 mg/mL |  |
| C1COCCN1.C1COCCN1.COc1ccc(C=Cc2cc(OC)c(OC)c(OP(=O)(O)O)c2)cc1OP(=O)(O)O [Compound 10k] | >40 mg/mL |  |
| COc1ccc(/C=C\c2cc(OC)c(OC)c(OP(=O)(O)O)c2)cc1OP(=O)(O)O.NC(=O)c1cccnc1.NC(=O)c1cccnc1.NC(=O)c1cccnc1.NC(=O)c1cccnc1 [Compound 10l] | 27 mg/mL |  |
